Data: ChEMBL document CHEMBL1201862, “PubChem BioAssay data set” (2004)
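All cell lines were grown in 96-well plates and treated with compound for 48 hours. At the GI50, growth is halved.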 Calls of active or inactive are those of the source. Rule as the data show it: active = GI50 up to about 1.1 µM and inactive = higher.

What was measured:
Assay in all cases: NCI-60 cell line screen, 48 h
MCF7 = system: MCF7
OVCAR-3 = system: OVCAR-3
SK-MEL-5 = system: SK-MEL-5
DU-145 = system: DU-145
U-251 = system: U-251
HT-29 = system: HT-29
HL-60 = system: HL-60
HOP-62 = system: HOP-62
MDA-MB-435 = system: MDA-MB-435
COLO 205 = system: COLO 205
T47D = system: T47D
Malme-3M = system: Malme-3M
MDA-MB-231 = system: MDA-MB-231
MOLT-4 = system: MOLT-4
SW-620 = system: SW-620
786-0 = system: 786-0
TK-10 = system: TK-10
K562 = system: K562
UACC-257 = system: UACC-257
PC-3 = system: PC-3

Row | SMILES | GI50 (MCF7) | GI50 (OVCAR-3) | GI50 (SK-MEL-5) | GI50 (DU-145) | GI50 (U-251) | GI50 (HT-29) | GI50 (HL-60) | GI50 (HOP-62) | GI50 (MDA-MB-435) | GI50 (COLO 205) | GI50 (T47D) | GI50 (Malme-3M) | GI50 (MDA-MB-231) | GI50 (MOLT-4) | GI50 (SW-620) | GI50 (786-0) | GI50 (TK-10) | GI50 (K562) | GI50 (UACC-257) | GI50 (PC-3)
1 | NC(=O)[C@H](Cc1ccc(O)cc1)NC1=C(Cl)C(=O)c2c(O)ccc(O)c2C1=O | 1.32 µM (inactive) | 2.14 µM (inactive) | 1.47 µM (inactive) | 6.53 µM (inactive) | 2.97 µM (inactive) | 2.38 µM (inactive) | 1.04 µM (active) | > 10 µM (inactive) | 2.07 µM (inactive) | 1.5 µM (inactive) | 2.15 µM (inactive) | 1.96 µM (inactive) | 2.51 µM (inactive) | 0.55 µM (active) | 1.06 µM (active) | 2.02 µM (inactive) | 2.72 µM (inactive) | 1.45 µM (inactive) | 3.15 µM (inactive) | 2.24 µM (inactive)
2 | O=C1C(O)=C(C(C2=C(O)C(=O)c3ccccc3C2=O)c2ccc(Cl)cc2)C(=O)c2ccccc21 | 5.13 µM (inactive) | 4.93 µM (inactive) | 6.67 µM (inactive) | 5.42 µM (inactive) | 6.24 µM (inactive) | 7.87 µM (inactive) | 1.66 µM (inactive) | 6.47 µM (inactive) | 1.83 µM (inactive) | 18.6 µM (inactive) | 21 µM (inactive) | 5.25 µM (inactive) | 3.15 µM (inactive) | 4.56 µM (inactive) | 4.69 µM (inactive) | 3.33 µM (inactive) | 14.7 µM (inactive) | 15.2 µM (inactive) | 5 µM (inactive) | 18.8 µM (inactive)
3 | O=C(NC(=O)c1c(Cl)nc2sccn12)Nc1ccc(Cl)cc1 | 15.5 µM (inactive) | 71.4 µM (inactive) | > 88.3 µM (inactive) | > 83.4 µM (inactive) | 24.8 µM (inactive) | > 100 µM (inactive) | > 100 µM (inactive) | 19.5 µM (inactive) | > 100 µM (inactive) | > 100 µM (inactive) | 13.7 µM (inactive) | 84.3 µM (inactive) | 25.5 µM (inactive) | > 100 µM (inactive) | > 100 µM (inactive) | 35.4 µM (inactive) | 35.6 µM (inactive) | > 100 µM (inactive) | > 100 µM (inactive) | 53 µM (inactive)
4 | O=C(/C=C/c1cccc(Br)c1)c1ccc(Cl)cc1 | 4.38 µM (inactive) | 16.7 µM (inactive) | 14.2 µM (inactive) | 14.8 µM (inactive) | 5.98 µM (inactive) | 11.2 µM (inactive) | 14.3 µM (inactive) | 19.2 µM (inactive) | 6.25 µM (inactive) | 17.2 µM (inactive) | 12.8 µM (inactive) | 14 µM (inactive) | 18 µM (inactive) | 5.93 µM (inactive) | 2.95 µM (inactive) | 14.3 µM (inactive) | 13 µM (inactive) | 6.58 µM (inactive) | 17.1 µM (inactive) | 15 µM (inactive)
5 | C=C(Br)COc1ccc2c(C)cc(=O)oc2c1 | < 0.01 µM (active) | 86.3 µM (inactive) | 14.6 µM (inactive) | > 100 µM (inactive) | 65.3 µM (inactive) | 66.4 µM (inactive) | 40.2 µM (inactive) | 69.8 µM (inactive) | 56.1 µM (inactive) | 1.99 µM (inactive) | 20.2 µM (inactive) | > 100 µM (inactive) | 0.951 µM (active) | 34.4 µM (inactive) | > 100 µM (inactive) | > 100 µM (inactive) | 45.9 µM (inactive) | 49 µM (inactive) | 73.5 µM (inactive) | > 100 µM (inactive)
6 | CCOC(=O)[C@@H](NC(=O)OC(C)(C)C)[C@@H](O)C(=O)OCC | > 100 µM (inactive) | > 100 µM (inactive) | > 100 µM (inactive) | > 100 µM (inactive) | > 100 µM (inactive) | > 100 µM (inactive) | > 100 µM (inactive) | > 100 µM (inactive) | > 100 µM (inactive) | > 100 µM (inactive) | > 100 µM (inactive) | > 100 µM (inactive) | > 100 µM (inactive) | > 100 µM (inactive) | > 100 µM (inactive) | > 100 µM (inactive) | > 100 µM (inactive) | > 100 µM (inactive) | > 100 µM (inactive) | > 100 µM (inactive)
7 | CCCCCNC1=CC(=O)c2ccccc2C1=O | > 72.3 µM (inactive) | 22.5 µM (inactive) | 17.9 µM (inactive) | 53.3 µM (inactive) | 17.5 µM (inactive) | 69.2 µM (inactive) | 18.5 µM (inactive) | 23.9 µM (inactive) | > 100 µM (inactive) | 79.6 µM (inactive) | 27.5 µM (inactive) | 34.5 µM (inactive) | 19.4 µM (inactive) | > 100 µM (inactive) | > 100 µM (inactive) | 18.4 µM (inactive) | 30.2 µM (inactive) | > 100 µM (inactive) | > 60.5 µM (inactive) | 37.6 µM (inactive)
8 | NCCSCC(N)C(=O)O (stereo not given) | 46.7 µM (inactive) | > 64.9 µM (inactive) | > 63.7 µM (inactive) | > 90.6 µM (inactive) | > 497 µM (inactive) | 39.5 µM (inactive) | > 497 µM (inactive) | > 497 µM (inactive) | 51.2 µM (inactive) | > 75.9 µM (inactive) | > 83 µM (inactive) | > 66.2 µM (inactive) | > 100 µM (inactive) | > 497 µM (inactive) | 46.8 µM (inactive) | 83.4 µM (inactive) | > 497 µM (inactive) | 37.2 µM (inactive) | > 497 µM (inactive) | > 100 µM (inactive)
9 | CSc1ccc2c(c1)C(N1CCN(C)CC1)Cc1ccccc1S2 (stereo not given) | 2.36 µM (inactive) | 8.91 µM (inactive) | 1.82 µM (inactive) | 10.7 µM (inactive) | 4.43 µM (inactive) | 2.33 µM (inactive) | 2.69 µM (inactive) | 8.07 µM (inactive) | 2.32 µM (inactive) | 1.98 µM (inactive) | 8.04 µM (inactive) | 1.71 µM (inactive) | 3.47 µM (inactive) | 2.47 µM (inactive) | 6.01 µM (inactive) | 4.47 µM (inactive) | 3.35 µM (inactive) | 1.94 µM (inactive) | 2.07 µM (inactive) | 4.3 µM (inactive)
10 | CNC(=O)OCCN1c2ccccc2Sc2ccccc21 | > 100 µM (inactive) | 63.2 µM (inactive) | 50.4 µM (inactive) | > 100 µM (inactive) | > 100 µM (inactive) | > 100 µM (inactive) | > 100 µM (inactive) | 14.1 µM (inactive) | > 100 µM (inactive) | > 100 µM (inactive) | > 100 µM (inactive) | > 100 µM (inactive) | 0.64 µM (active) | > 100 µM (inactive) | > 100 µM (inactive) | > 100 µM (inactive) | > 100 µM (inactive) | > 100 µM (inactive) | > 100 µM (inactive) | 46.6 µM (inactive)
11 | Nc1nc(Cl)cc(Oc2ccc(Cl)cc2)n1 | > 53.2 µM (inactive) | > 56.4 µM (inactive) | > 56.6 µM (inactive) | > 56.2 µM (inactive) | > 56.2 µM (inactive) | > 100 µM (inactive) | > 68.9 µM (inactive) | > 100 µM (inactive) | > 57.3 µM (inactive) | > 60.5 µM (inactive) | 32.4 µM (inactive) | 34.3 µM (inactive) | > 56.1 µM (inactive) | > 60.5 µM (inactive) | > 58.6 µM (inactive) | > 59 µM (inactive) | 28.2 µM (inactive) | > 55.8 µM (inactive) | 38.5 µM (inactive) | > 100 µM (inactive)
12 | Cc1noc(NS(=O)(=O)c2ccc(NC(=O)c3ccc4[nH]c5ccccc5c(=O)c4c3)cc2)c1C | 30.5 µM (inactive) | 23.6 µM (inactive) | 44 µM (inactive) | > 100 µM (inactive) | 27.4 µM (inactive) | 39.3 µM (inactive) | 27.4 µM (inactive) | 50.1 µM (inactive) | 35.6 µM (inactive) | 37.2 µM (inactive) | 26.1 µM (inactive) | 27 µM (inactive) | 45.9 µM (inactive) | 21.9 µM (inactive) | > 100 µM (inactive) | 46.2 µM (inactive) | > 100 µM (inactive) | 28.1 µM (inactive) | > 100 µM (inactive) | 36.1 µM (inactive)
13 | O=C(/N=S(/NC(=O)c1ccccc1)C(Cl)(Cl)Cl)c1ccccc1 (stereo not given) | 24 µM (inactive) | 31.2 µM (inactive) | 14.3 µM (inactive) | 53.5 µM (inactive) | 29.9 µM (inactive) | 18.9 µM (inactive) | 4.89 µM (inactive) | 19.5 µM (inactive) | 17.7 µM (inactive) | 14.8 µM (inactive) | 26.9 µM (inactive) | 17.5 µM (inactive) | 33.7 µM (inactive) | 6.97 µM (inactive) | 3.57 µM (inactive) | 28.1 µM (inactive) | > 100 µM (inactive) | 8.91 µM (inactive) | 35.2 µM (inactive) | 46.2 µM (inactive)
14 | CSc1[nH]nc(N)c1C(=O)Nc1ccc(C)cc1 | 39.5 µM (inactive) | 77.3 µM (inactive) | 31 µM (inactive) | 22.3 µM (inactive) | 50.2 µM (inactive) | > 100 µM (inactive) | 39.3 µM (inactive) | > 100 µM (inactive) | 30.9 µM (inactive) | 55 µM (inactive) | 18.4 µM (inactive) | 89.1 µM (inactive) | 63.2 µM (inactive) | 26.2 µM (inactive) | 48.1 µM (inactive) | 49.4 µM (inactive) | 43 µM (inactive) | 69.5 µM (inactive) | 62.4 µM (inactive) | 33.7 µM (inactive)
